From patent US20070185176A1, “Heparanase inhibitors and uses thereof” (Insight Bioharmaceuticals Ltd., priority 2004, published 2007) come the findings set out here.

The term IC50 denotes the concentration at which inhibition is half-maximal.

Molecules are shown by their SMILES.

The test system of one experiment is HT1080 cells. As to the kind of experiment: In vitro assay of invasion inhibition (BD BioCoat Angiogenesis System, matrigel). The class given is cell-based, human. The settings on record: for Invasion: HT1080 cells through matrigel, non-toxic concentration, 22 hours. As for the experimental part: (c) In Vitro Assay of Invasion Inhibition by Heparanase Inhibitors
The ability of the compounds of the invention to inhibit cell invasion was determined quantitatively by the in vitro Endothelial Cell Migration assay using a BD BioCoat Angiogenesis System kit. The kit consists of a 24-multiwell insert plate (FluoroBlok, BD Falcon) containing a microporous (3.0 μm pore size) polyethylene terephthalate (PET) membrane that is capable of blocking fluorescence completely (>99% efficiency). This membrane is uniformly coated with matrigel (BD Matrigel Matrix). The uniform layer of matrigel matrix serves as a reconstituted authentic basement membrane in vitro, providing a true barrier to non-invasive cells, but allowing endothelial cells to attach to the membrane and freely migrate towards an angiogenic stimulus in the lower chamber of the insert plate. Post-labeling the cells with a fluorescent dye and measuring the fluorescence of invading cells in a fluorescent plate reader, provides quantitative measurement of cell invasion.
To cover the optimal seeding density for HT1080 cells, suspensions containing various cell concentrations were prepared: 1 ml of 3×10^5 cells/ml, 8 ml of 1.5×10^5 cells/ml and 1 ml of 0.75×10^5 cells/ml. The top chambers of each well in the inserts was filled with 0.25 ml cell-suspension, […] DMEM containing 5% fetal calf serum and an inhibitor solution. The plates were incubated for 22 hours at 37° C. and 8% CO2 atmosphere. At the end of incubation, the medium was aspirated from the upper chambers, and the insert was transferred into a second 24-well plate containing 0.5 ml/well of the fluorescent dye Calcein AM solution (4 μg/ml per plate, prepared from 50 μg Calcein AM dissolved in 20 μl DMSO and 12.5 ml of warm HBSS medium), and incubated for 90 minutes at 37° C., 8% CO2 atmosphere. Fluorescence of invaded cells was read in a fluorescence plate reader with bottom read capabilities at excitation/emission wavelength of 485/530 nm, without further manipulation. Only those labeled cells that have invaded the matrigel and passed through the pores of the PET membrane, were detected.

The target of experiment [1] is T1, human recombinant heparanase (h-hpa) (Homo sapiens, UniProt Q9Y251).
T1 sequence (Q9Y251 158-543 limits assumed): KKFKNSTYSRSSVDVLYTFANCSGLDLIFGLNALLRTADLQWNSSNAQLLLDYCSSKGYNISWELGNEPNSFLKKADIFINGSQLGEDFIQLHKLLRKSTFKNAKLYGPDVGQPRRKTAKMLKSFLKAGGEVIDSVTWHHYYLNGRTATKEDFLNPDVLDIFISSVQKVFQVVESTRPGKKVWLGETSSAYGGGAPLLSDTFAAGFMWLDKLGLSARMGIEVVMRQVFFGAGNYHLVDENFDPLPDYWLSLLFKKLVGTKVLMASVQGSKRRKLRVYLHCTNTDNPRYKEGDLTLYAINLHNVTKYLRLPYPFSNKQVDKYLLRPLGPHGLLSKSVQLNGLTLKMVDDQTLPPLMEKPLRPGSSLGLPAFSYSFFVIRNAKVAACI
T1 sequence (Q9Y251 36-109 limits assumed): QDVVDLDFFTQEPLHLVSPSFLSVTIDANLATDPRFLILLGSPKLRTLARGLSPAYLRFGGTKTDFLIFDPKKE
As to the kind of experiment: In vitro dimethylmethylene blue (DMB) assay for heparanase activity.
Procedure: (a) In Vitro Dimethylmethylene Blue (DMB) Assay for Heparanase Activity
Heparin Sepharose CL-6B beads were added up to the top of the wells of a multiscreen column loader (Millipore). A 96-well multiscreen plate containing 0.65 μm hydrophilic, low protein binding, Durapore membrane (Millipore) was placed, upside down, on top of the multiscreen column loader. The column loader and the multiscreen plate were held together, turned over, and the beads were uniformly transferred from the column loader to the multiscreen plate (Millipore, MADVM 650). Double-distilled water (DDW) was then added to the beads, which were allowed to swell for one minute, and then washed (three times) with DDW under vacuum. Heparin concentration was estimated to be 10 μM/well.
To each well, phosphate-buffered saline (PBS) containing 1% bovine serum albumin (BSA; 70 μl/well) and DMB (32 mg of DMB were dissolved in 5 ml ethanol, diluted to 1 liter with formate buffer containing 4 g sodium formate and 4 ml formic acid; 120 μl/well) were added. Color was developed after 5 minutes, and the absorbance of the samples was determined using a microplate reader (Spectra Max, Molecular Devices) at 530 nm with 570 nm as reference. The absorbance correlated to heparanase activity. As a control, heparanase was added to the heparin Sepharose swollen beads in the multiscreen plate and the heparanase reaction products were filtered immediately thereafter and the absorbance of these control samples was subtracted from all other samples.
The cell extracts were centrifuged and resuspended in 20 mM phosphate citrate buffer, pH 5.4 containing 50 mM NaCl. The cells were lysed by three cycles of freezing and thawing. The cell lysates were centrifuged (10000×g for 5 min), supernatants were collected and then assayed for heparanase activity using the DMB assay.
The partially purified human recombinant heparanase or the crude cell extracts expressing either human or mouse recombinant heparanase were added for a 3-hour incubation and the reaction continued as described above. Absorbance of the developing color was measured as described above.

With `CCCCCCCCCCCCCCCc1ccc(OC(CC)C(=O)NCCCNC(=O)c2ccc3ccccc3c2O)cc1` (centres unmarked) [Compound 31], the Invasion result in the experiment on HT1080 cells is recorded as “yes”. Also, the IC50 in experiment [1] came out at 520 nM. `CCCCCCCCCCCCCCCCCC1=NN(c2ccc(Oc3ccccc3)c(S(=O)(=O)O)c2)C(=O)C1/N=N/c1c(C)n[nH]c1C` (centres unmarked) [Compound 12]: the Invasion entry in the experiment on HT1080 cells is “yes”. For the same compound, the IC50 in experiment [1] stood at 240 nM. Take `CCCCCCCCCCCCCCCCCC1=NN(c2ccc(Oc3ccccc3)c(S(=O)(=O)O)c2)C(=O)C1/N=N/c1cccc(O)c1` (centres unmarked) [Compound 16]: the Invasion result in the experiment with HT1080 cells is recorded as “yes”. Also, the IC50 in experiment [1] was 220 nM.

In the case of `CCCCCCCCCCCCCCCCCC1=NN(c2ccc(Oc3ccccc3)cc2S(=O)(=O)O)C(=O)C1/N=N/c1ccc(OC)cc1` (centres unmarked) [Compound 19], in the experiment on HT1080 cells, the Invasion entry is recorded as “yes”. Further, in experiment [1], the IC50 worked out at 320 nM. For `CCCCCCCCCCCCCCCCCC(=O)NC1=NN(c2ccc(Oc3ccccc3)c(S(=O)(=O)O)c2)C(=O)C1` [Compound 1], in the experiment on HT1080 cells, the “inhibition of cell invasion” value is on record as “effective inhibitors of cell invasion” and the Invasion result is “yes”. As for `CCCCCCCCC(CCCCCCCC)C1=NN(c2cccc(S(=O)(=O)O)c2)C(=O)C1` [Compound 17], the Invasion result in the experiment on HT1080 cells is on record as “yes”. In addition, the IC50 in experiment [1] came to 2700 nM. On to `CCCCCCCCCCCCCCCCCC1=NN(c2ccc(Oc3ccccc3)c(S(=O)(=O)O)c2)C(=O)C1/N=N/c1ccc(N(CC)CC)cc1` (centres unmarked) [Compound 10], for which the Invasion entry in the experiment on HT1080 cells is “yes”. Besides, the IC50 in experiment [1] is 260 nM. For `CCCCCCCCCCCCCCCCCC(=O)NC1=NN(c2ccc(Oc3ccccc3)c(S(=O)(=O)O)c2)C(=O)C1/N=N/c1c(C)nn(C)c1C` (centres unmarked) [Compound 22], the Invasion result in the experiment with HT1080 cells is recorded as “yes”. For the same compound, the IC50 in experiment [1] was 650 nM. Take `CCCCCCCCCCCCCCCCOc1ccccc1C1C=NN(c2ccc(S(=O)(=O)O)cc2)C1=O` (centres unmarked) [Compound 28]: the Invasion result in the experiment with HT1080 cells is “yes”. Besides, the IC50 in experiment [1] turned out to be 1000 nM. Take `CCCCCCCCCCCCCCCCCC1=NN(c2ccc(Oc3ccccc3)c(S(=O)(=O)O)c2)C(=O)C1/N=N/c1ccc(O)c(OC)c1` (centres unmarked) [Compound 15]: the Invasion result in the experiment with HT1080 cells is given as “yes”. Besides, in experiment [1], the IC50 amounted to 250 nM.

As to `CCCCCCCCCCCCCCCC1=NN(c2ccc(S(=O)(=O)O)cc2)C(=O)C1Br` (centres unmarked) [Compound 13], the Invasion entry in the experiment on HT1080 cells is on record as “yes”. Besides, the IC50 in experiment [1] came to 1000 nM. The corresponding values for `CCCCCCCCCCCCCCCCCC1=Nn2c(nc3c(C(=O)O)cc(S(=O)(=O)O)cc32)C1` [Compound 4] are “yes” and 1200 nM.

On to `CCCCCCCCCCCCCCCCCC(=O)Nc1nn(-c2ccc(Oc3ccccc3)c(S(=O)(=O)O)c2)c(O)c1/N=N/c1c(C)nn(CCCCCCCCCC)c1C` [Compound 32], for which the Invasion result with HT1080 cells is “yes”. Besides, the IC50 in experiment [1] is 240 nM.

Regarding `CCCCCCCCCCCCCCCCCCN(C(=O)c1ccc2ccccc2c1O)c1cc(C(=O)O)cc(C(=O)O)c1` [Compound 3], in the experiment on HT1080 cells, the “inhibition of cell invasion” value is “effective inhibitors of cell invasion” and the Invasion result is listed as “yes”. Further, the IC50 in experiment [1] came out at 380 nM. In the case of `CCCCCCCCCCCCCCCCCC1=NN(c2ccc(Oc3ccccc3)c(S(=O)(=O)O)c2)C(=O)C1C(C)C` (centres unmarked) [Compound 30], the Invasion entry in the experiment on HT1080 cells was “yes”. Besides, the IC50 in experiment [1] turned out to be 160 nM. Turning to `CCCCCCCCCCC/C=C\CCCCC(=O)NC1=NN(c2ccc(Oc3ccccc3)c(S(=O)(=O)O)c2)C(=O)C1` [Compound 85], the IC50 in experiment [1] stood at 400 nM. For `CCCCCCCCCCCC1OC1CCCCC(=O)On1nnc2ccccc2c1=O` (centres unmarked) [Compound 99], the IC50 in experiment [1] amounted to 16000 nM. Take `CCCCCCCCCCCCCCCCCC1=NN(c2ccc(Oc3ccccc3)c(S(=O)(=O)O)c2)C(=O)C1/N=N/c1ccc(NC(C)=O)cc1` (centres unmarked) [Compound 26]: the IC50 in experiment [1] worked out at 130 nM.

For the compound `CCCCCCCCCCCCCCCCCCOc1ccc(S(=O)(=O)Nc2cccc(S(=O)(=O)N/N=C3\N(C)c4ccccc4C3(C)C)c2)cc1C(=O)O` [Compound 59], the IC50 in experiment [1] was 490 nM. In the case of `CCCCCCCCCCCCCCCCOc1ccc(S(=O)(=O)O)cc1C(=O)O` [Compound 88], the IC50 in experiment [1] was determined as 4400 nM. In the case of `C=CCCCCCCCCCCCCCCC(CC(=O)NC1=NN(c2c(Cl)cc(Cl)cc2Cl)C(=O)C1)C(=O)O` (centres unmarked) [Compound 56], the IC50 in experiment [1] turned out to be 6800 nM. On to `CCCCCCCCCCCCCCCCn1c(=N)n(CC(O)c2ccc(OC)c(OC)c2)c2ccccc21` (centres unmarked) [Compound 65], for which the IC50 in experiment [1] amounted to 4800 nM. Consider `CCCCCCCCCCCCCCCCCC(=O)Nc1cc(C(=O)O)ccc1Oc1cc(C(=O)O)cc(C(=O)O)c1` [Compound 61], for which the IC50 in experiment [1] amounted to 2000 nM. `CCCCCCCCCCCCCCCCCCOc1ccc(C(=O)O)cc1NC(=O)c1cc(Sc2nnnn2-c2ccccc2)c2ccccc2c1O` [Compound 46]: the IC50 in experiment [1] was 7700 nM. With `CCCCCCCCCCCCCCCCCC(=O)Nc1ccc(C(=O)NC2=NN(c3ccc(Oc4ccccc4)c(S(=O)(=O)O)c3)C(=O)C2/N=N/c2ccc(NS(=O)(=O)c3ccc(C)cc3)cc2)cc1` (centres unmarked) [Compound 27], in experiment [1], the half-maximal inhibitory concentration (IC50) worked out at 270 nM. Take `CCCCCCCCCCCCC/C=C/CC(O)(C(=O)O)C(F)(F)F` (centres unmarked) [Compound 97]: the IC50 in experiment [1] was determined as 6000 nM. `CCCCCCCCCCCC1SC1CCCCC(=O)Nc1cc(C(=O)O)ccc1Oc1cc(C(=O)O)cc(C(=O)O)c1` (centres unmarked) [Compound 92]: the IC50 in experiment [1] is 500 nM. For the compound `CCCCCCCCCCCCCCCCCCN(C)c1ccc(S(=O)(=O)O)cc1NC(=O)c1cc(/N=N/c2cccc(NS(C)(=O)=O)c2)c2ccccc2c1O` [Compound 47], the IC50 in experiment [1] is 250 nM. Still for that read-out and setting: then `CCCCCCCCCCCCCCCCCCN(C)c1ccc(S(=O)(=O)O)cc1NC(=O)c1cc(/N=N/c2cc(OC)c(O)cc2Cl)c2ccccc2c1O` [Compound 55], with 430 nM; and `CCCCCCCCCCCCCCCCCC[n+]1c2cc(N(C)C)ccc2cc2ccc(N(C)C)cc21` [Compound 79], with 1600 nM; and `CCCCCCCCCCCCCCCCCC1=NN(c2ccc(Oc3ccccc3)c(S(=O)(=O)O)c2)C(=O)C1/N=N/c1cccc(C(=O)O)c1` (centres unmarked) [Compound 11], with 180 nM.

Take `CCCCCCCCCCCCCCCCCCNC(=O)C1CC(=O)N(c2ccc(Oc3ccc(Br)cc3)c(S(=O)(=O)O)c2)C1` (centres unmarked) [Compound 105]: in experiment [1], the IC50 was 860 nM.

With `CCCCCCCCCCCCCCCCCC1=Nn2c(nc3cc(C(=O)O)ccc32)C1S(=O)(=O)O` (centres unmarked) [Compound 36], in experiment [1], the IC50 stood at 1420 nM. `CCCCCCCCCCCCCCCCCC1=NN(c2nc3ccc(S(=O)(=O)O)cc3[nH]2)C(=O)/C1=N\c1ccc(N(CC)CC)cc1` [Compound 38]: the IC50 in experiment [1] is 1450 nM. Same read-out and setting: then `CCCCCCCCCCCCCCCCCCNC(=O)C1CC(=O)N(c2ccc(Oc3ccc(C(=O)O)cc3)c(S(=O)(=O)O)c2)C1` (centres unmarked) [Compound 107, 2-(4-carboxy-phenoxy)-5-(4-octadecyl-carbamoyl-2-oxo-pyrrolidin-1-yl)-benzene sulfonic acid], with 330 nM; and `CCCCCCCCCCCCCCCCCCNc1ccc(C(=O)O)cc1NC(=O)c1cc(/N=N/c2ccc(NS(=O)(=O)c3ccc(C)cc3)cc2C)c2ccccc2c1O` [Compound 63], with 16800 nM.

As to `CCCCCCCCCCCCCCCCCC1=NN(c2ccc(Oc3ccccc3)c(S(=O)(=O)O)c2)C(=O)C1/N=N/c1ccc(OC)cc1` (centres unmarked) [Compound 7], the IC50 in experiment [1] was 240 nM. On the same count and under the same terms, then `CCCCCCCCCCCCCCCCCCOc1ccc(S(=O)(=O)O)cc1NC(=O)c1cc(/N=N/c2ccccc2C(=O)O)c2ccccc2c1O` [Compound 49], with 2700 nM; and `CCCCCCCCCCCCCCCCCCN1/C(=C/C=C/c2oc3ccccc3[n+]2CCCCCCCCCCCCCCCCCC)Oc2ccccc21` [Compound 66], with 1000 nM; and `CCCCCCCCCCCCCCCCCCn1c(C)nc2cc(S(=O)(=O)O)ccc21` [Compound 73], with 1400 nM. `CCCCCCCCCCCC1OC1CCCCC(=O)Nc1cc(C(=O)O)ccc1Oc1cc(C(N)=O)cc(C(=O)O)c1` (centres unmarked) [Compound 95]: the IC50 in experiment [1] worked out at 1000 nM. Take `CCCCCCCCCCCCCCCCCC(=O)NC1=NN(c2ccc(Oc3ccccc3)c(S(=O)(=O)O)c2)C(=O)C1/N=N/c1ccc(O)cc1Cl` (centres unmarked) [Compound 69]: the IC50 in experiment [1] was found to be 180 nM. As for `CCCCCCCCCCCCCCCCCC1=NN(c2nc3cc(C(=O)O)cc(C(=O)O)c3s2)C(=O)C1` [Compound 39], the IC50 in experiment [1] is 2800 nM.
